Experimental data reported in patent publication US7749985B2, “Acyloxyalkyl carbamate prodrugs, methods of synthesis and use” (XenoPort, Inc., priority 2006, dated 2010).

Legend:
[1] = animal models (Merino et al., Biopharm. Drug. Disp. 1989); cited from earlier work
[2] = pH-Dependent Stability of prodrugs in aqueous buffers; type: physicochemical; conditions: pH 2 to pH 8, 37° C.
Protocol: (§1) The stabilities of prodrugs were evaluated in one or more in vitro systems using a variety of tissue preparations following methods known in the art. The chemical stability of prodrugs in aqueous buffers at a pH of 2.0, 7.4, and 8.0 were also measured. Tissues were obtained from commercial sources (e.g., Pel-Freez Biologicals, Rogers, Ark., or GenTest Corporation, Woburn, Mass.). Experimental conditions used for the in vitro studies are described in Table 1. Each preparation was incubated with test compound at 37° C. for one hour. Aliquots (50 μL) were removed at 0, 30, and 60 min and quenched with 0.1% trifluoroacetic acid in acetonitrile. Samples were then centrifuged and analyzed by LC/MS/MS. Stability of prodrugs towards specific enzymes (e.g., peptidases, etc.) was also assessed in vitro by incubation with the purified enzyme.
pH-Dependent Stability: The long-term pH-dependent stability of tranexamic acid prodrug at 37° C. was measured by LC/MS/MS at five different representative pH values from pH 2.0 to pH 8.0 was determined. The test concentration was 5 μM. The amount of remaining prodrug and the amount of tranexamic acid released from the prodrug was determined at 0 hour and after 24 hours.

[3] = Enzymatic cleavage of prodrugs in vitro (tissue preparations of Table 1); type: in vitro ADME; conditions: in the presence of the tissue preparations, 37° C.
Protocol: as §1
Pancreatin Stability: Stability studies were conducted by incubating prodrug (5 μM) with 1% (w/v) pancreatin (Sigma, P-1625, from porcine pancreas) in 0.025 M Tris buffer containing 0.5 M NaCl (pH 7.5) at 37° C. for 60 min. The reaction was stopped by addition of 2 volumes of methanol. After centrifugation at 14,000 rpm for 10 min, the supernatant was removed and analyzed by LC/MS/MS.
Caco-2 Homogenate S9 Stability: Caco-2 cells were grown for 21 days prior to harvesting. Culture medium was removed and cell monolayers were rinsed and scraped off into ice-cold 10 mM sodium phosphate/0.15 M potassium chloride, pH 7.4. Cells were lysed by sonication at 4° C. using a probe sonicator. Lysed cells were then transferred into 1.5 mL centrifuge vials and centrifuged at 9,000 g for 20 min at 4° C. The resulting supernatant (Caco-2 cell homogenate S9 fraction) was aliquoted into 0.5 mL vials and stored at −80° C. until used.
For stability studies, prodrug (5 μM) was incubated in Caco-2 homogenate S9 fraction (0.5 mg protein per mL) for 60 min at 37° C. Concentrations of intact prodrug and released tranexamic acid were determined at zero time and 60 min using LC/MS/MS.

stability from pH 2 to pH 8 [2] | SMILES | absorption following administration into the colon [1] | hydrolysis to release the corresponding 3-aminopropylphosphinic acid analog [3]
 | NCC(CC(=O)O)c1ccc(Cl)cc1 (racemic) [Baclofen, (±)-4-Amino-3-(4-chlorophenyl)butanoic acid] | poorly absorbed | 
good stability | CCCCP(=O)(O)CCCNC(=O)OC(C)OC(=O)C(C)C (centres unmarked) [Compound 31, 3-{[1-Isobutanoyloxyethoxy]carbonylamino}propyl(n-butyl)phosphinic Acid] |  | hydrolyzed to release the corresponding 3-aminopropylphosphinic acid analogs
good stability | CCCCP(=O)(O)CCCNC(=O)OCOC(=O)c1ccccc1 [Compound 212, 3-{[1-Benzoyloxymethoxy]carbonylamino}propyl(n-butyl)phosphinic Acid] |  | hydrolyzed to release the corresponding 3-aminopropylphosphinic acid analogs
good stability | CCCCP(=O)(O)CCCNC(=O)OCOC(=O)C(C)C [Compound 35, 3-{[Isobutanoyloxymethoxy]carbonylamino}propyl(n-butyl)phosphinic Acid] |  | hydrolyzed to release the corresponding 3-aminopropylphosphinic acid analogs
good stability | CCCCP(=O)(O)CCCNC(=O)OC(C)OC(=O)c1ccccc1 (centres unmarked) [Compound 211, 3-{[1-Benzoyloxyethoxy]carbonylamino}propyl(n-butyl)phosphinic Acid] |  | hydrolyzed to release the corresponding 3-aminopropylphosphinic acid analogs

SMILES | stability from pH 2 to pH 8 [2] | absorption following administration into the colon [1] | hydrolysis to release the corresponding 3-aminopropylphosphinic acid analog [3]
CCCCP(=O)(O)CCCNC(=O)OC(OC(=O)C(C)C)C(C)C (centres unmarked) [39/40, 3-{[1-isobutanoyloxyisobutoxy]carbonylamino}propyl(n-butyl)phosphinic acid] | good stability |  | hydrolyzed to release the corresponding 3-aminopropylphosphinic acid analogs
